Measured values: patent publication US11098041B2 (Merck Patent GmbH, priority 2014, dated 2021)

How the values were obtained:
[1] = test system: anti-IgM-induced expression of CD69 on CD19 positive cells (B cells) in human PBMCs; assay: Assay C: PBMC IC50 assay (anti-IgM-induced CD69 expression); assay type: cell-based; conditions: anti-IgM stimulation
Experimental: Btk is critical for mediating the signalling of B cell antigen receptor (BCR) after anti-IgM stimulation. Based on this principle, a functional cell-based assay was established to determine the potency of compounds at inhibiting anti-IgM-induced expression of CD69, a downstream BCR signaling event, in freshly isolated human peripheral blood mononuclear cells (PBMCs). In the assay, a 90 μl PBMC suspension containing 2.5×10^5 cells was pre-treated with 10 μl of test compound at various concentrations for an hour, and then incubated overnight (approximately 16-18 hours) with 5 μl 420 μg/ml affiniPure F(ab′)2 fragment goat anti-human IgM Fc fragment per well (Dianova, Cat. No.: 109-006-129). After the incubation, the cells were washed and immunostained with an APC-labeled mouse anti-human CD69 (BD Biosciences; clone: FN50), a PerCP-Cy5.5 labelled mouse anti-human CD19 (BD Biosciences; clone: SJ25C1) and a FITC-labelled mouse anti-human CD3 (BD Biosciences; clone: HIT3a), and fixed for flow cytometric analysis of CD69 expression on CD19 positive cells (B cells). The percentage of CD69 expressing CD19 positive cells was plotted against the concentrations of test compounds to obtain a concentration response curve, and calculate an IC50 value as a measure of the potency of test compounds in the assay.

full-length human BTK = full-length human BTK (Homo sapiens (Human), UniProt Q06187); assay: Assay A: microfluidic off-chip mobility shift assay against BTK enzyme; assay type: biochemical
Sequence of full-length human BTK (Q06187 whole entry): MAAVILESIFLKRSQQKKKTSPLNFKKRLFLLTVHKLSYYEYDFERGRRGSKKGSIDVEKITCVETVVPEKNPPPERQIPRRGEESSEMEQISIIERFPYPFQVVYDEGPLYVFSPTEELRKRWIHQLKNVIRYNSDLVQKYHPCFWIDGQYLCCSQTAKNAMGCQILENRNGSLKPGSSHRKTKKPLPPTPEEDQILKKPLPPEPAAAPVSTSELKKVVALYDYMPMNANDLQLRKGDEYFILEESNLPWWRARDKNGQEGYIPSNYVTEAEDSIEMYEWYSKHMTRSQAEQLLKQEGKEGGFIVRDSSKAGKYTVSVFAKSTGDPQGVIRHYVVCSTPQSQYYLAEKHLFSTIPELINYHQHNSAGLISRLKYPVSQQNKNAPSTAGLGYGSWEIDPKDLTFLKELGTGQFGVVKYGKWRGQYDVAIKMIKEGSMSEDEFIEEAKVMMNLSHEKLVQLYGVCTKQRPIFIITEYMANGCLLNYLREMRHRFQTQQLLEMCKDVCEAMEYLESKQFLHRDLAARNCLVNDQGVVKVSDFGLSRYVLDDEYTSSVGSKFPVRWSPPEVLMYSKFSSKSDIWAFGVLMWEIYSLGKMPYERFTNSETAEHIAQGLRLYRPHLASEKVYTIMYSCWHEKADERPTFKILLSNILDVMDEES
Experimental: Assay A: Microfluidic Off-Chip Mobility Shift Assay Protocol for Potency Assessment Against BTK Enzyme
The protocol below describes microfluidic, off-chip mobility shift kinase assay to measure inherent potency of compounds against BTK enzyme.
5 uL of enzyme buffer and 7.5 uL of ATP/kinKDR peptide substrate mix were added to Matrix (#115304) 384-well, sterile, polypropylene plates (Thermo Fisher Scientific, Hudson, N.H.) with 125 nL of serially diluted compounds prepared in 100% DMSO, and incubated for 90 min. at 27° C. Following the incubation period, reactions were stopped by adding 60 uL stop buffer consisting of 100 mM HEPES, pH 7.5, 0.015% Brij-35 (30%), 0.277% Coating Reagent #3 (Caliper Life Sciences, Mountain View, Calif.), 5% DMSO. Stopped reactions were monitored at −2 PSI, −3000 V/−700 V in a LabChip 3000 plate reader from Caliper Life Sciences, a PerkinElmer Company (Hopkinton, Mass.), and the activity was measured by off-chip mobility shift assay measuring the charge/mass difference between substrate and product resulting from peptide phosphorilation. IC50 and efficacy were determined by plotting log [Inhibitor] vs. % Activity in GeneData Screener (Basel. Switzerland).

[2] = target: BTK C481S (His-TEV-hsBTK(328-659)(C481S)) (Homo sapiens (Human), UniProt Q06187, C481S); assay: Assay B: microfluidic off-chip mobility shift assay against BTK C481S enzyme; assay type: biochemical; conditions: BTK C481S mutant
Sequence of BTK C481S (His-TEV-hsBTK(328-659)(C481S)) (Q06187 328-659 C481S): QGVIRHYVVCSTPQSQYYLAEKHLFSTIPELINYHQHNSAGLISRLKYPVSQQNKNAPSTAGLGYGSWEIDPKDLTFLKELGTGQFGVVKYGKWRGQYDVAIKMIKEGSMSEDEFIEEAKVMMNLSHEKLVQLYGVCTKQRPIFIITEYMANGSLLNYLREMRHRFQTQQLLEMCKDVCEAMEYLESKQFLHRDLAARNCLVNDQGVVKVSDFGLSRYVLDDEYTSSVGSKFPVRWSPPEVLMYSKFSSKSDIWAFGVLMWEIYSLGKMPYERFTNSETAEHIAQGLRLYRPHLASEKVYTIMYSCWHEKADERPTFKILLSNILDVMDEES
Experimental: The mechanics of the assay platform are described by the vendor (PerkinElmer, Hopkinton, Mass.) on their website at the following URL: http://caliperls.com.
5 uL of enzyme buffer and 7.5 uL of ATP/KinKDR peptide substrate mix were added to Matrix (#4315) 384-well, sterile, flat-bottom polypropylene plates (Thermo Fisher Scientific, Hudson, N.H.) with 125 nL of serially diluted compounds prepared in 100% DMSO, and incubated for 90 min. at 25° C. Following the incubation period, reactions were terminated by adding 65 uL quench buffer consisting of 100 mM HEPES, pH 7.5, 0.015% Brij-35 (30%), 0.277% Coating Reagent #3 (PerkinElmer, Mountain View, Calif.), 5% DMSO. Terminated reactions were monitored at −2 PSI, −3000 V/−700 Volts in a LabChip 3000 plate reader from Caliper Life Sciences, a PerkinElmer Company (Hopkinton, Mass.), and the activity was quantified by laser-induced fluorescence measuring the charge/mass difference between substrate and product resulting from peptide phosphorylation. IC50 and efficacy were determined by plotting log [Inhibitor] vs. % Activity in GeneData Screener (Basel, Switzerland).

| Compound | IC50 (full-length human BTK) | IC50 [2] | IC50 [1] |
| --- | --- | --- | --- |
| CC(C)(C)c1noc(C(=O)NCc2ccc(-c3ccnc4[nH]c(C5CC5)nc34)cc2F)n1 [Example 28, 3-tert-Butyl-[1,2,4]oxadiazole-5-carboxylic acid 4-(2-cyclopropyl-3H-imidazo[4,5-b]pyridin-7-yl)-2-fluoro-benzylamide] |  |  | 1000 to 5000 nM |
| Cn1cc(-c2nc3c(-c4ccc(CNC(=O)c5cc6c(s5)CCCC6)c(F)c4)ccnc3[nH]2)cn1 [Example 132, N-(2-fluoro-4-(2-(1-methyl-1H-pyrazol-4-yl)-3H-imidazo[4,5-b]pyridin-7-yl)benzyl)-4,5,6,7-tetrahydrobenzo[b]thiophene-2-carboxamide] |  |  | 100 to 1000 nM |
| Cn1cc(-c2nc3c(-c4ccc(CNC(=O)C5CCC(C(C)(C)C)CC5)c(F)c4)ccnc3[nH]2)cn1 (centres unmarked) [Example 15, 4-tert-Butyl-cyclohexanecarboxylic acid 2-fluoro-4-[2-(1-methyl-1H-pyrazol-4-yl)-3H-imidazo[4,5-b]pyridin-7-yl]-benzylamide] |  |  | 1000 to 5000 nM |
| Cn1cc(-c2nc3c(-c4ccc5c(c4)CN(C(=O)c4nc(C(C)(C)C)no4)C5)ccnc3[nH]2)cn1 [Example 156, (3-tert-Butyl-[1,2,4]oxadiazol-5-yl)-{5-[2-(1-methyl-1H-pyrazol-4-yl)-3H-imidazo[4,5-b]pyridin-7-yl]-1,3-dihydro-isoindol-2-yl}-methanone] | 100 to 1000 nM | 1000 to 5000 nM |  |
| CC(C)(C)c1nc(C(=O)NCc2ccc(-c3ccnc4[nH]c(C5CCNC(=O)C5)nc34)cc2F)no1 (centres unmarked) [Example 30, 5-tert-Butyl-[1,2,4]oxadiazole-3-carboxylic acid 2-fluoro-4-[2-(2-oxo-piperidin-4-yl)-3H-imidazo[4,5-b]pyridin-7-yl]-benzylamide] | 1000 to 5000 nM | 100 to 1000 nM |  |
| CC(C)(C)c1ccc(C(=O)Nc2cccc(-c3ccnc4[nH]c(-c5ccc(C(=O)N6CCOCC6)cc5)nc34)c2CO)cc1 [Example 46, 4-tert-Butyl-N-[2-(hydroxymethyl)-3-(2-[4-[(morpholin-4-yl)carbonyl]phenyl]-3H-imidazo[4,5-b]pyridin-7-yl)phenyl]benzamide] | 1000 to 5000 nM | 1000 to 5000 nM |  |
| Cn1cc(-c2nc3c(-c4ccc(C(C)(C)NC(=O)C(N)=O)c(F)c4)ccnc3[nH]2)cn1 [Example 102, N-(1-{2-Fluoro-4-[2-(1-methyl-1H-pyrazol-4-yl)-3H-imidazo[4,5-b]pyridin-7-yl]-phenyl}-1-methyl-ethyl)-oxalamide] | 1000 to 5000 nM | 1000 to 5000 nM |  |
| Cn1cc(-c2nc3c(-c4ccc(CNC(=O)C5CC(OC(C)(C)C)C5)c(F)c4)ccnc3[nH]2)cn1 (centres unmarked) [Example 60, 3-(tert-Butoxy)-N-([2-fluoro-4-[2-(1-methyl-1H-pyrazol-4-yl)-3H-imidazo[4,5-b]pyridin-7-yl]phenyl]methyl)cyclobutane-1-carboxamide] | 100 to 1000 nM | 100 to 1000 nM |  |
| COc1cccnc1-c1nc2c(-c3ccc(CNC(=O)c4nc(C(C)(C)C)no4)c(F)c3)ccnc2[nH]1 [Example 152, 3-(tert-butyl)-N-(2-fluoro-4-(2-(3-methoxypyridin-2-yl)-3H-imidazo[4,5-b]pyridin-7-yl)benzyl)-1,2,4-oxadiazole-5-carboxamide] | < 100 nM | < 100 nM |  |
| Cn1cc(-c2nc3c(-c4ccc(CNC(=O)c5nc(C6(C)CC6)no5)c(F)c4)ccnc3[nH]2)cn1 [Example 165, N-([2-fluoro-4-[2-(1-methyl-1H-pyrazol-4-yl)-3H-imidazo[4,5-b]pyridin-7-yl]phenyl]methyl)-3-(1-methylcyclopropyl)-1,2,4-oxadiazole-5-carboxamide] |  |  | 100 to 1000 nM |
| Cc1c(CNC(=O)c2noc(C(C)(C)C)n2)cccc1-c1ccnc2[nH]c(-c3cnn(C)c3)nc12 [Example 88, 5-tert-Butyl-N-([2-methyl-3-[2-(1-methyl-1H-pyrazol-4-yl)-3H-imidazo[4,5-b]pyridin-7-yl]phenyl]methyl)-1,2,4-oxadiazole-3-carboxamide] | 1000 to 5000 nM | > 5000 nM |  |

More lines, main results first:

| IC50 (full-length human BTK) | IC50 [2] | Compound | IC50 [1] |
| --- | --- | --- | --- |
| < 100 nM |  | CN1CC=C(c2ccc(-c3nc4c(-c5ccc(CNC(=O)c6noc(C(C)(C)C)n6)c(F)c5)ccnc4[nH]3)nc2)CC1 [Example 85, 5-tert-Butyl-N-[(2-fluoro-4-[2-[5-(1-methyl-1,2,3,6-tetrahydropyridin-4-yl)pyridin-2-yl]-3H-imidazo [4,5-b]pyridin-7-yl]phenyl)methyl]-1,2,4-oxadiazole-3-carboxamide; trifluoroacetic acid] | 100 to 1000 nM |
| < 100 nM | < 100 nM | Cn1cc(-c2nc3c(-c4ccc(CNC(=O)c5cnc(C6CC6)o5)c(F)c4)ccnc3[nH]2)cn1 [Example 18] |  |
| < 100 nM | < 100 nM | Cn1cc(-c2nc3c(-c4ccc(Cn5ncc6cc(C(C)(C)C)cc(F)c6c5=O)c(F)c4)ccnc3[nH]2)cn1 [Example 99, 6-tert-Butyl-8-fluoro-2-{2-fluoro-4-[2-(1-methyl-1H-pyrazol-4-yl)-3H-imidazo[4,5-b]pyridin-7-yl]-benzyl}-2H-phthalazin-1-one] |  |
| < 100 nM | < 100 nM | 5-tert-Butyl-[1,3,4]oxadiazole-2-carboxylic acid 2-fluoro-4-{2-[1-(2-morpholin-4-yl-ethyl)-1H-pyrazol-4-yl]-3H-imidazo[4,5-b]pyridin-7-yl}-benzylamide [Example 120] |  |
| < 100 nM | < 100 nM | CCn1cc(C(=O)NCc2ccc(-c3ccnc4[nH]c(-c5cnn(C)c5)nc34)cc2F)cn1 [Example 20, 1-Ethyl-1H-pyrazole-4-carboxylic acid 2-fluoro-4-[2-(1-methyl-1H-pyrazol-4-yl)-3H-imidazo[4,5-b]pyridin-7-yl]-benzylamide] |  |
| < 100 nM | < 100 nM | CC(C)(C)c1noc(C(=O)NCc2ccc(-c3ccnc4[nH]c(-c5cccnc5)nc34)cc2F)n1 [Example 149, 3-(tert-butyl)-N-(2-fluoro-4-(2-(pyridin-3-yl)-3H-imidazo[4,5-b]pyridin-7-yl)benzyl)-1,2,4-oxadiazole-5-carboxamide] |  |
| < 100 nM | < 100 nM | COc1ncccc1-c1nc2c(-c3ccc(CNC(=O)c4nc(C(C)(C)C)no4)c(F)c3)ccnc2[nH]1 [Example 151, 3-(tert-butyl)-N-(2-fluoro-4-(2-(2-methoxypyridin-3-yl)-3H-imidazo[4,5-b]pyridin-7-yl)benzyl)-1,2,4-oxadiazole-5-carboxamide] |  |
| < 100 nM | < 100 nM | CC(C)(C)c1nc(C(=O)NCc2ccc(-c3ccnc4[nH]c(-c5cnn(CCN6CCOCC6)c5)nc34)cc2F)no1 [Example 119, 5-tert-Butyl-[1,2,4]oxadiazole-3-carboxylic acid 2-fluoro-4-{2-[1-(2-morpholin-4-yl-ethyl)-1H-pyrazol-4-yl]-3H-imidazo[4,5-b]pyridin-7-yl}-benzylamide] |  |
| < 100 nM | < 100 nM | CC(C)(C)c1nc(C(=O)Nc2cccc(-c3ccnc4[nH]c(-c5ccc(C(=O)N6CCOCC6)cc5)nc34)c2CO)no1 [Example 45, 5-tert-Butyl-N-[2-(hydroxymethyl)-3-(2-[4-[(morpholin-4-yl)carbonyl]phenyl]-3H-imidazo[4,5-b]pyridin-7-yl)phenyl]-1,2,4-oxadiazole-3-carboxamide] |  |
| < 100 nM | < 100 nM | CC(C)(C)c1nnc(C(=O)NCc2ccc(-c3ccnc4[nH]c(-c5cnn(C6CCOCC6)c5)nc34)cc2F)o1 [Example 126, 5-tert-Butyl-[1,3,4]oxadiazole-2-carboxylic acid 2-fluoro-4-{2-[1-(tetrahydro-pyran-4-yl)-1H-pyrazol-4-yl]-3H-imidazo[4,5-b]pyridin-7-yl}-benzylamide] |  |
